Test results as given in US10202361B2, “Pyridazinones as herbicides” (E I DU PONT DE NEMOURS AND COMPANY, priority 2014, dated 2019).
Like-named read-outs stand apart in the source and are kept apart here.

Legend:
Assay type in all cases: in vivo
rice (Oryza sativa) = assay: Test B flooded paddy test; settings: Oryza sativa, 312 h, Flood, scale of 0 to 100, 0 is no effect, 100 is complete control, 13 to 15 d, read-out: Plant response rating, Rice
Summary of the method: (§1)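 Visual ratings, 0 meaning no effect and 100 complete control, were made relative to untreated controls 13–15 d after treatment in a greenhouse. Treatment was by addition to paddy water 3 cm above the soil, maintained for the test, on 2-leaf-stage plants.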

[1] = test system: sedge, umbrella (small-flower umbrella sedge, Cyperus difformis); assay: Test B flooded paddy test; settings: Cyperus difformis, 312 h, Flood, scale of 0 to 100, 0 is no effect, 100 is complete control, 13 to 15 d, read-out: Plant response rating, Sedge, Umbrella
Summary of the method: as §1

[2] = test system: chickweed (common chickweed, Stellaria media); assay: Test C postemergence greenhouse herbicide test
Source text: At the same time, plants selected from these crop and weed species and also barley (winter barley, Hordeum vulgare), canarygrass (Phalaris minor), windgrass (Apera spica-venti), deadnettle (henbit deadnettle, Lamium amplexicaule), and chickweed (common chickweed, Stellaria media) were planted in pots containing Redi-Earth® planting medium (Scotts Company, 14111 Scottslawn Road, Marysville, Ohio 43041) comprising spaghnum peat moss, vermiculite, wetting agent and starter nutrients and treated with postemergence applications of test chemicals formulated in the same manner. Plants ranged in height from 2 to 18 cm (1- to 4-leaf stage) for postemergence treatments. Treated plants and controls were maintained in a greenhouse for 13 to 15 d, after which time all species were compared to controls and visually evaluated. Plant response ratings, summarized in Table C, are based on a scale of 0 to 100 where 0 is no effect and 100 is complete control. A dash (-) response means no test result.

[3] = test system: barnyardgrass (Echinochloa crus-galli); assay: Test A pre-/postemergence greenhouse herbicide test; settings: Echinochloa crus-galli, 240 h, 0 to 100 scale (0 no effect, 100 complete control), approx. 10 d, read-out: Plant response rating, Barnyardgrass; for pest or weed control at 125 g/ha: 125 g ai/ha; for pest or weed control at 500 g/ha: 500 g ai/ha
Summary of the method: (§2)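 Injury was scored visually on a 0–100 scale (100 = complete control) about 10 d after spraying, relative to untreated plants. Compounds were formulated in solvent plus surfactant and applied as soil spray preemergence or to 2–10 cm, one- to two-leaf seedlings postemergence.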

[4] = test system: foxtail, giant (giant foxtail, Setaria faberii); assay: as above; settings: Setaria faberi, 240 h, 0 to 100 scale (0 no effect, 100 complete control), approx. 10 d, read-out: Plant response rating, Foxtail, Giant; for pest or weed control at 125 g/ha: 125 g ai/ha; for pest or weed control at 500 g/ha: 500 g ai/ha
Summary of the method: as §2

corn (Zea mays) = assay: as above; settings: Zea mays, 240 h, 0 to 100 scale (0 no effect, 100 complete control), approx. 10 d; for Corn plant response rating (crop injury, 0 = no effect, 100 = complete kill) at 125 g/ha: 125 g ai/ha; for Corn plant response rating (crop injury, 0 = no effect, 100 = complete kill) at 500 g/ha: 500 g ai/ha
Summary of the method: as §2

[5] = test system: velvetleaf (Abutilon theophrasti); assay: as above; settings: Abutilon theophrasti, 240 h, 0 to 100 scale (0 no effect, 100 complete control), approx. 10 d, read-out: Plant response rating, Velvetleaf; for pest or weed control at 125 g/ha: 125 g ai/ha; for pest or weed control at 500 g/ha: 500 g ai/ha
Summary of the method: as §2

[6] = test system: wheat (Triticum aestivum); assay: as above; settings: Triticum aestivum, 240 h, 0 to 100 scale (0 no effect, 100 complete control), approx. 10 d, read-out: Plant response rating, Wheat; for plant injury at 125 g/ha: 125 g ai/ha; for plant injury at 500 g/ha: 500 g ai/ha
Summary of the method: as §2

[7] = test system: morningglory (Ipomoea spp.); assay: as above; settings: Ipomoea, 240 h, 0 to 100 scale (0 no effect, 100 complete control), approx. 10 d, read-out: Plant response rating, Morningglory; for pest or weed control at 125 g/ha: 125 g ai/ha; for pest or weed control at 500 g/ha: 500 g ai/ha
Summary of the method: as §2

[8] = test system: crabgrass, Large (large crabgrass, Digitaria sanguinalis); assay: as above; settings: Digitaria sanguinalis, 240 h, 0 to 100 scale (0 no effect, 100 complete control), approx. 10 d, read-out: Plant response rating, Crabgrass, Large; for pest or weed control at 125 g/ha: 125 g ai/ha; for pest or weed control at 500 g/ha: 500 g ai/ha
Summary of the method: as §2

[9] = test system: pigweed (Amaranthus retroflexus); assay: as above; settings: Amaranthus retroflexus, 240 h, 0 to 100 scale (0 no effect, 100 complete control), approx. 10 d, read-out: Plant response rating, Pigweed; for pest or weed control at 125 g/ha: 125 g ai/ha; for pest or weed control at 500 g/ha: 500 g ai/ha
Summary of the method: as §2

Compound	Plant response rating ([2]; 31 g ai/ha)	Plant response rating ([2]; 62 g ai/ha)	Plant response rating ([2]; 125 g ai/ha)	Plant response rating ([2]; 250 g ai/ha)	pest or weed control at 125 g/ha ([3]; post-emergence, Postemergence) [%]	pest or weed control at 500 g/ha ([3]; post-emergence, Postemergence) [%]	pest or weed control at 125 g/ha ([3]; pre-emergence, Preemergence) [%]	pest or weed control at 500 g/ha ([3]; pre-emergence, Preemergence) [%]	pest or weed control at 125 g/ha ([4]; post-emergence, Postemergence) [%]	pest or weed control at 500 g/ha ([4]; post-emergence, Postemergence) [%]	pest or weed control at 125 g/ha ([4]; pre-emergence, Preemergence) [%]	pest or weed control at 500 g/ha ([4]; pre-emergence, Preemergence) [%]	Corn plant response rating (crop injury, 0 = no effect, 100 = complete kill) at 125 g/ha (corn (Zea mays); post-emergence, Postemergence) [%]	Corn plant response rating (crop injury, 0 = no effect, 100 = complete kill) at 500 g/ha (corn (Zea mays); post-emergence, Postemergence) [%]	Corn plant response rating (crop injury, 0 = no effect, 100 = complete kill) at 125 g/ha (corn (Zea mays); pre-emergence, Preemergence) [%]	Corn plant response rating (crop injury, 0 = no effect, 100 = complete kill) at 500 g/ha (corn (Zea mays); pre-emergence, Preemergence) [%]	pest or weed control at 125 g/ha ([5]; post-emergence, Postemergence) [%]	pest or weed control at 500 g/ha ([5]; post-emergence, Postemergence) [%]	pest or weed control at 125 g/ha ([5]; pre-emergence, Preemergence) [%]	pest or weed control at 500 g/ha ([5]; pre-emergence, Preemergence) [%]	further results
Cc1cc(=O)n(-c2ccc(F)cc2)nc1Oc1ccnc(C(F)(F)F)c1 [Compound 14, 2-(4-fluorophenyl)-5-methyl-6-[[2-(trifluoromethyl)-4-pyridinyl]oxy]-3 (2H)-pyridazinone]	35	35	35	55	80	90	70	100	90	90	90	90	50	70	0	50	80	90	30	100	plant injury at 250 g/ha (rice (Oryza sativa); 250 g ai/ha): 30%; pest or weed control at 250 g/ha ([1]; 250 g ai/ha): 75%; plant injury at 125 g/ha ([6]; post-emergence, Postemergence): 40%; plant injury at 500 g/ha ([6]; post-emergence, Postemergence): 70%; plant injury at 125 g/ha ([6]; pre-emergence, Preemergence): 10%; plant injury at 500 g/ha ([6]; pre-emergence, Preemergence): 60%; pest or weed control at 125 g/ha ([7]; post-emergence, Postemergence): 90%; pest or weed control at 500 g/ha ([7]; post-emergence, Postemergence): 100%; pest or weed control at 125 g/ha ([7]; pre-emergence, Preemergence): 80%; pest or weed control at 500 g/ha ([7]; pre-emergence, Preemergence): 100%; pest or weed control at 125 g/ha ([8]; post-emergence, Postemergence): 90%; pest or weed control at 500 g/ha ([8]; post-emergence, Postemergence): 90%; pest or weed control at 125 g/ha ([8]; pre-emergence, Preemergence): 90%; pest or weed control at 500 g/ha ([8]; pre-emergence, Preemergence): 90%; pest or weed control at 125 g/ha ([9]; post-emergence, Postemergence): 100%; pest or weed control at 500 g/ha ([9]; post-emergence, Postemergence): 100%; pest or weed control at 125 g/ha ([9]; pre-emergence, Preemergence): 100%; pest or weed control at 500 g/ha ([9]; pre-emergence, Preemergence): 100%
COc1cc(=O)n(-c2ccc(C(F)(F)F)cc2)nc1Cc1ccnc(C(F)(F)F)c1 [Compound 16, 5-methoxy-2-[4-(trifluoromethyl)phenyl]-6-[[2-(trifluoromethyl)-4-pyridinyl]methyl]-3(2H)-pyridazinone]	80	90	90	98	80	90	90	100	90	90	100	100	20	80	40	70	80	100	30	80	plant injury at 125 g/ha (rice (Oryza sativa); 125 g ai/ha): 35%; pest or weed control at 125 g/ha ([1]; 125 g ai/ha): 80%; plant injury at 125 g/ha ([6]; post-emergence, Postemergence): 60%; plant injury at 500 g/ha ([6]; post-emergence, Postemergence): 70%; plant injury at 125 g/ha ([6]; pre-emergence, Preemergence): 20%; plant injury at 500 g/ha ([6]; pre-emergence, Preemergence): 70%; pest or weed control at 125 g/ha ([7]; post-emergence, Postemergence): 90%; pest or weed control at 500 g/ha ([7]; post-emergence, Postemergence): 100%; pest or weed control at 125 g/ha ([7]; pre-emergence, Preemergence): 80%; pest or weed control at 500 g/ha ([7]; pre-emergence, Preemergence): 80%; pest or weed control at 125 g/ha ([8]; post-emergence, Postemergence): 90%; pest or weed control at 500 g/ha ([8]; post-emergence, Postemergence): 100%; pest or weed control at 125 g/ha ([8]; pre-emergence, Preemergence): 100%; pest or weed control at 500 g/ha ([8]; pre-emergence, Preemergence): 100%; pest or weed control at 125 g/ha ([9]; post-emergence, Postemergence): 100%; pest or weed control at 500 g/ha ([9]; post-emergence, Postemergence): 100%; pest or weed control at 125 g/ha ([9]; pre-emergence, Preemergence): 100%; pest or weed control at 500 g/ha ([9]; pre-emergence, Preemergence): 100%
